pIC50: −log10 of the molar value. In brackets after ≈: the same amount, converted by molar mass. Activity calls are given as the source filed them. No cut-off for these calls is given here. A value given as a limit tells only on which side of the number the result lay.

Consider 13 compounds from ChEMBL document CHEMBL5257115, “Synthesis of novel ciprofloxacin-avibactam conjugates for the development of second-generation non-β-lactam-β-lactamase inhibitors” (Bioorg Med Chem Lett, 2023).

For data set [1], the system named is Staphylococcus aureus. Put plainly: Antibacterial activity against multidrug resistant Staphylococcus aureus ATCC 25923 assessed as bacterial growth inhibition. It is filed as functional.
The test system of data set [2] is Escherichia coli. Put plainly: Antibacterial activity against multidrug resistant Escherichia coli ATCC 25922 assessed as bacterial growth inhibition. It is filed as functional.
Data set [3] deals with Acinetobacter baumannii. The data set can be described thus: Antibacterial activity against multidrug resistant Acinetobacter baumannii ATCC 2803 assessed as bacterial growth inhibition. In kind it is functional.
The test system of data set [4] is Escherichia coli. The data set can be described thus: Antibacterial activity against multidrug resistant Escherichia coli ATCC 2774 assessed as bacterial growth inhibition. In kind it is functional.
The test system of data set [5] is Klebsiella pneumoniae. Put plainly: Antibacterial activity against multidrug resistant Klebsiella pneumoniae ATCC 2782 assessed as bacterial growth inhibition. It is filed as functional.
The subject of data set [6] is Klebsiella pneumoniae. Put plainly: Antibacterial activity against multidrug resistant Klebsiella pneumoniae ATCC 2146 assessed as bacterial growth inhibition. In kind it is functional.
The test system of data set [7] is Staphylococcus aureus. Put plainly: Antibacterial activity against multidrug resistant Staphylococcus aureus ATCC 43300 assessed as bacterial growth inhibition. It is filed as functional.
Data set [8] concerns Escherichia coli. The data set can be described thus: Synergistic antibacterial activity against multidrug resistant Escherichia coli ATCC 25922 assessed as bacterial growth inhibition in presence of ceftazidime. It is filed as functional, organism-based.
Data set [9] relates to Klebsiella pneumoniae. Put plainly: Synergistic antibacterial activity against multidrug resistant Klebsiella pneumoniae ATCC 2782 assessed as bacterial growth inhibition in presence of ceftazidime. In kind it is functional, organism-based.
In data set [10] the target is T1, Metallo-beta-lactamase type 2 (Bacillus cereus, UniProt P14488).
T1 sequence (P14488 whole entry): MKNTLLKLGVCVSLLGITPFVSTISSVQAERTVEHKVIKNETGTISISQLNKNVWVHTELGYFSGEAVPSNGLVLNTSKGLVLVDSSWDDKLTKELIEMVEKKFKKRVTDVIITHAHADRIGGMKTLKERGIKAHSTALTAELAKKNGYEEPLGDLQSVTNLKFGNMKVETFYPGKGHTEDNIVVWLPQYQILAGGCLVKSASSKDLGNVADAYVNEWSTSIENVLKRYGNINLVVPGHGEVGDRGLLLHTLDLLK
Put plainly: Inhibition of Bacillus cereus beta-lactamase II.

Data set [11] deals with Klebsiella pneumoniae. The data set can be described thus: Synergistic antibacterial activity against multidrug resistant Klebsiella pneumoniae ATCC 2146 assessed as bacterial growth inhibition in presence of ceftazidime. It is filed as functional, organism-based.
A short description of data set [12]: Hemolytic activity in human RBC assessed as hemolysis at 512 ug/ml. It is filed as toxicity, cell-based, Erythrocyte. The following applies: red blood cells (RBC), at 512 µg/mL, read-out: Activity.
The subject of data set [13] is Escherichia coli. The data set can be described thus: Synergistic antibacterial activity against multidrug resistant Escherichia coli ATCC 2774 assessed as bacterial growth inhibition in presence of ceftazidime. It is filed as functional, organism-based.

Take `O=C(CCCCCNC(=O)[C@@H]1CC[C@@H]2CN1C(=O)N2OS(=O)(=O)O)NNC(=O)c1cn(C2CC2)c2cc(N3CCNCC3)c(F)cc2c1=O`: the minimal inhibitory concentration (MIC) in data set [1] is over 64 µg/mL; in [2] it was 4 µg/mL (≈ 5.66 µM); in data set [3] it was over 64 µg/mL; in data set [4] it was over 32 µg/mL; in data set [5], over 32 µg/mL; in data set [6], over 64 µg/mL. In addition, in data set [7], the MIC was over 64 µg/mL.

As for `NC(=O)[C@@H]1CC[C@@H]2CN1C(=O)N2OS(=O)(=O)O` [AVIBACTAM], the MIC in data set [1] is 256 µg/mL (≈ 965 µM); in data set [2], 8 µg/mL (≈ 30.2 µM); in [3], over 128 µg/mL; in [4] it was 8 µg/mL (≈ 30.2 µM); in data set [5], 32 µg/mL (≈ 121 µM); in data set [6], 8 µg/mL (≈ 30.2 µM). Besides, the MIC in data set [7] is over 128 µg/mL. Also, the result in [8], in data set [9], in [11] and in [13] was Active. The pIC50 in [10] was 6.85. Moreover, the hemolysis at 512 ug/ml in data set [12] was 3.87%.

With `O=C(CCCNC(=O)[C@@H]1CC[C@@H]2CN1C(=O)N2OS(=O)(=O)O)NNC(=O)c1cn(C2CC2)c2cc(N3CCNCC3)c(F)cc2c1=O`, the MIC in data set [1] was over 64 µg/mL; in [2], 8 µg/mL (≈ 11.8 µM); in [3] it was over 64 µg/mL; in data set [4] it was over 32 µg/mL; in data set [5] it was over 32 µg/mL; in data set [6] it was over 64 µg/mL. Besides, the MIC in data set [7] is over 64 µg/mL.

For the compound `CC(C)(C)OC(=O)N1CCN(c2cc3c(cc2F)c(=O)c(C(=O)NNC(=O)[C@@H]2CC[C@@H]4CN2C(=O)N4OS(=O)(=O)[O-])cn3C2CC2)CC1.CCCC[N+](CCCC)(CCCC)CCCC`, the MIC in [1] was 8 µg/mL; in [2] it was over 256 µg/mL; in data set [3], over 128 µg/mL; in data set [4] it was over 128 µg/mL; in data set [5] it was over 128 µg/mL; in data set [6], over 128 µg/mL. For the same compound, the MIC in [7] was over 128 µg/mL.

With `COc1ccc(C[C@H](NC(=O)[C@@H]2CC[C@@H]3CN2C(=O)N3OS(=O)(=O)O)C(=O)NNC(=O)c2cn(C3CC3)c3cc(N4CCNCC4)c(F)cc3c2=O)cc1OC`, the MIC in data set [1] was over 64 µg/mL; in [2], 32 µg/mL (≈ 40 µM); in data set [3] it was over 64 µg/mL; in data set [4], over 64 µg/mL; in [5], over 64 µg/mL; in data set [6], over 64 µg/mL. Besides, the minimum inhibitory concentration (MIC) in data set [7] was over 64 µg/mL.

Consider `O=C(O)c1cn(C2CC2)c2cc(N3CCNCC3)c(F)cc2c1=O` [CIPROFLOXACIN], for which the MIC in data set [3] is over 128 µg/mL; in data set [4] it was 128 µg/mL (≈ 386 µM); in data set [5], over 128 µg/mL; in data set [6], over 128 µg/mL; in data set [7] it was 0.5 µg/mL (≈ 1.51 µM).

`O=C(NNC(=O)[C@@H]1CC[C@@H]2CN1C(=O)N2OS(=O)(=O)O)c1cn(C2CC2)c2cc(N3CCNCC3)c(F)cc2c1=O`: the MIC in data set [1] is 8 µg/mL (≈ 13.5 µM); in data set [2], 16 µg/mL (≈ 27 µM); in data set [3], over 128 µg/mL; in [4], over 128 µg/mL; in [5], over 128 µg/mL; in [6], over 128 µg/mL. For the same compound, in data set [7], the minimum inhibitory concentration (MIC) stood at 128 µg/mL (≈ 216 µM). For the same compound, the outcome in data set [8], in [9], in data set [11] and in data set [13] was Active. The compound also showed a negative logarithm of the IC50 (pIC50) in data set [10] of 8.77. Further, in data set [12], the hemolysis at 512 ug/ml came to 4.27%.

Regarding `CC(C)[C@H](NC(=O)[C@@H]1CC[C@@H]2CN1C(=O)N2OS(=O)(=O)O)C(=O)NNC(=O)c1cn(C2CC2)c2cc(N3CCNCC3)c(F)cc2c1=O`, the MIC is 128 µg/mL (≈ 185 µM) in data set [1]; 16 µg/mL (≈ 23.1 µM) in data set [2]; over 128 µg/mL in data set [3]; over 128 µg/mL in [4]; over 128 µg/mL in data set [5]; over 128 µg/mL in [6]. Besides, the MIC in data set [7] was over 128 µg/mL. For the same compound, the outcome in data set [8], in data set [9], in data set [11] and in [13] was Active. The compound further gave a pIC50 in data set [10] of 7.24. In data set [12], the hemolysis at 512 ug/ml turned out to be 5.1%.

Take `O=C(NNC(=O)[C@@H]1CCCN1C(=O)[C@@H]1CC[C@@H]2CN1C(=O)N2OS(=O)(=O)O)c1cn(C2CC2)c2cc(N3CCNCC3)c(F)cc2c1=O`: the minimum inhibitory concentration (MIC) in data set [1] is 128 µg/mL (≈ 185 µM); in data set [2], 8 µg/mL (≈ 11.6 µM); in data set [3], over 128 µg/mL; in [4] it was over 128 µg/mL; in data set [5], over 128 µg/mL; in data set [6] it was over 128 µg/mL. Also, the MIC in [7] is over 128 µg/mL.

In the case of `O=C(NNC(=O)[C@H](Cc1ccccc1)NC(=O)[C@@H]1CC[C@@H]2CN1C(=O)N2OS(=O)(=O)O)c1cn(C2CC2)c2cc(N3CCNCC3)c(F)cc2c1=O`, the MIC in [1] was 8 µg/mL (≈ 10.8 µM); in data set [2], 16 µg/mL (≈ 21.6 µM); in [3], over 128 µg/mL; in data set [4] it was over 128 µg/mL; in data set [5], over 128 µg/mL; in [6], over 128 µg/mL. Further, the minimal inhibitory concentration (MIC) in data set [7] was over 128 µg/mL.

In the case of `CC[C@H](C)C(NC(=O)[C@@H]1CC[C@@H]2CN1C(=O)N2OS(=O)(=O)O)C(=O)NNC(=O)c1cn(C2CC2)c2cc(N3CCNCC3)c(F)cc2c1=O` (stereo partly drawn), the minimum inhibitory concentration (MIC) in data set [1] is over 256 µg/mL; in [2], 32 µg/mL (≈ 45.3 µM); in [3], over 128 µg/mL; in data set [4], over 128 µg/mL; in [5], over 128 µg/mL; in data set [6], over 128 µg/mL. For the same compound, in [7], the MIC was over 128 µg/mL.

Consider `C[C@H](NC(=O)[C@@H]1CC[C@@H]2CN1C(=O)N2OS(=O)(=O)O)C(=O)NNC(=O)c1cn(C2CC2)c2cc(N3CCNCC3)c(F)cc2c1=O`, for which the MIC was 16 µg/mL (≈ 24.1 µM) in [1]; 1 µg/mL (≈ 1.5 µM) in data set [2]; over 128 µg/mL in data set [3]; over 128 µg/mL in data set [4]; over 128 µg/mL in data set [5]; over 128 µg/mL in data set [6]. Further, the MIC in data set [7] turned out to be 32 µg/mL (≈ 48.1 µM).

As for `O=C(CNC(=O)[C@@H]1CC[C@@H]2CN1C(=O)N2OS(=O)(=O)O)NNC(=O)c1cn(C2CC2)c2cc(N3CCNCC3)c(F)cc2c1=O`, the MIC in data set [1] is over 256 µg/mL; in data set [2], 8 µg/mL (≈ 12.3 µM); in data set [3], over 128 µg/mL; in [4], over 128 µg/mL; in data set [5], over 128 µg/mL; in data set [6] it was over 128 µg/mL. For the same compound, the MIC in data set [7] is over 128 µg/mL. In addition, the result in [8], in data set [9], in data set [11] and in data set [13] was Active. For the same compound, the pIC50 in data set [10] was 6.65. In addition, in data set [12], the hemolysis at 512 ug/ml was found to be 5.74%.
